Measured values as given in patent US9040525B2, “Cyclic amide derivative” (MOCHIDA PHARMACEUTICAL CO., LTD., priority 2010, dated 2015).

Target: T1, GPR40 of human origin (Homo sapiens, UniProt O14842)
T1 construct: expressed in transfected cells
Assay: Agonist action on GPR40 of human origin (Ca2+ fluorescence, CHO cell strain stably expressing GPR40)
Format: cell-based
Conditions: fluctuation of Ca2+ concentration
Procedure: A CHO cell strain stably expressing GPR40 of human origin was used to determine the agonist action of a title compound. This cell strain was seeded in a clear bottom 96 well plate at 2×10^4 cells/100 μL/well. The cell strain was cultured in a CO2 incubator overnight using a Ham's F-12 medium containing a 10% fetal bovine serum, 100 U/mL penicillin, 0.1 mg/mL streptomycin, and 400 μg/mL. Geneticin. Calcium 4 Assay Kit (Molecular Devices) was used as a fluorescent calcium indicator. One mL of 77 mg/mL probenecid (Invitrogen) was added to 100 mL of a calcium indicator solution to prepare a solution (loading solution) mixed with a 20 mM HEPES-containing Hanks' balanced salt solution (HBSS) in equal proportions. To the cells from which the culture solution was removed, 200 μL of the loading solution was added, and the cells were cultured in a CO2 incubator for 1 hour. The title compound was diluted with a 20 mM HEPES-containing HBSS and was added to the cells by 50 μL, and the fluctuation of the Ca^2+concentration was measured by an intracellular ion analyzer. The EC50 value of the title compound was calculated using the dose-response curve of fluorescence intensity variation.

T1 sequence (O14842 whole entry): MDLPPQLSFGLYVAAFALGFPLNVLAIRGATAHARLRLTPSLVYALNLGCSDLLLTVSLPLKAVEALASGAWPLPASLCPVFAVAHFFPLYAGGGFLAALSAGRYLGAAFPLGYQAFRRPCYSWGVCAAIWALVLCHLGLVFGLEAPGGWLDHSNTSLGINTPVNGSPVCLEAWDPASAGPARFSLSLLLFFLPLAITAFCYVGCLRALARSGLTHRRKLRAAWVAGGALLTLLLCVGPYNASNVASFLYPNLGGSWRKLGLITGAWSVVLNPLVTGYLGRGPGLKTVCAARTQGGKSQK

EC50: < 300 nM
SMILES: CCOCCOc1cc(C)c(-c2cccc(COc3ccc(C4CC(=O)N[S+]4[O-])cc3)c2)c(C)c1F (stereo not shown) [Example 2, 5-[4-[[3-[4-(2-ethoxyethoxy)-3-fluoro-2,6-dimethylphenyl]phenyl]methoxy]phenyl]-1-oxo-1,2-thiazolidin-3-one]
